Assay results taken from article PMC10746158, “Archaeal GPN-loop GTPases involve a lock-switch-rock mechanism for GTP hydrolysis” (mBio, 2023).

biological target: T1, SaGPN (Sulfolobus acidocaldarius, UniProt Q4J9A7); assay: isothermal titration calorimetry; type: binding
T1 construct: gene Saci_1281; E. coli BL21(DE3) Rosetta; Y2-A240 built, 14 C-terminal residues disordered
T1 sequence (Q4J9A7 1-254): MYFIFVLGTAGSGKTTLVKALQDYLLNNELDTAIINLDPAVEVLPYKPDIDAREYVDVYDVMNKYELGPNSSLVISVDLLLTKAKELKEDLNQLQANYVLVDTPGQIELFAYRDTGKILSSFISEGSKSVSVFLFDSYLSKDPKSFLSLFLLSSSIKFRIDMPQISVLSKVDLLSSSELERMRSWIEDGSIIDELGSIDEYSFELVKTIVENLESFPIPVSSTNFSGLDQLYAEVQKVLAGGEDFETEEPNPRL

Kd | Structure (SMILES)
6.15 nM | Nc1nc2c(ncn2[C@@H]2O[C@H](COP(=O)(O)OP(=O)(O)O)[C@@H](O)[C@H]2O)c(=O)[nH]1 [GDP]
2.2 nM | Nc1nc2c(ncn2[C@@H]2O[C@H](COP(=O)(O)OP(=O)(O)OP(=O)(O)O)[C@@H](O)[C@H]2O)c(=O)[nH]1 [GTP]
22 nM | Nc1nc2c(ncn2[C@@H]2O[C@H](COP(=O)(O)OP(=O)(O)NP(=O)(O)O)[C@@H](O)[C@H]2O)c(=O)[nH]1 [GppNHp]
